Assay results as given in ChEMBL document CHEMBL3112394, “Identification of the 5,5-dioxo-7,8-dihydro-6H-thiopyrano[3,2-d]pyrimidine derivatives as highly selective PDE4B inhibitors” (Bioorg Med Chem Lett, 2014).

Tests used:
[1] = target: 3',5'-cyclic-AMP phosphodiesterase 4B (Homo sapiens, UniProt Q07343); experiment: Inhibition of full-length human PDE4B2 assessed as cAMP hydrolysis preincubated for 20 mins followed by cAMP addition measured after 30 mins
[2] = target: T1, 3',5'-cyclic-AMP phosphodiesterase 4D (Homo sapiens, UniProt Q08499); experiment: Inhibition of full-length human PDE4D2 assessed as cAMP hydrolysis preincubated for 20 mins followed by cAMP addition measured after 30 mins
Homo sapiens [3] = species: Homo sapiens; experiment: Selectivity ratio of IC50 for full-length human PDE4D2 to IC50 for full-length human PDE4B2
Homo sapiens [4] = species: Homo sapiens; experiment: Selectivity ratio of IC50 for recombinant human PDE4D (78 to 508) to IC50 for recombinant human PDE4B (152 to 564)
[5] = target: T1, 3',5'-cyclic-AMP phosphodiesterase 4D; experiment: Inhibition of recombinant human PDE4D (78 to 508)
[6] = AUC in mouse at 10 mg/kg, po; format: ADME, organism-based; parameters: dose 10 mg/kg, route oral; settings: plasma
[7] = Cmax in mouse at 10 mg/kg, po; format: ADME, organism-based; parameters: dose 10 mg/kg, route oral; settings: in vivo
[8] = Antiinflammatory activity in Balb/c mouse splenocytes assessed as inhibition of LPS-induced TNF-alpha production after 18 to 24 hrs; format: functional, cell-based; settings: Splenocyte
[9] = 1-octanol-phosphate buffered saline distribution coefficient, log D of the compound at 200 uM at pH 7.4 after 30 mins by shake flask method; format: physicochemical
[10] = Permeability of the compound at 50 uM at pH 7.4 after 4 hrs by PAMPA; format: ADME; settings: read-out: permeability
[11] = Terminal half life in mouse at 10 mg/kg, po; format: ADME, organism-based; parameters: dose 10 mg/kg, route oral; settings: in vivo, read-out: beta t1/2 (converted)

T1 sequence (Q08499 whole entry): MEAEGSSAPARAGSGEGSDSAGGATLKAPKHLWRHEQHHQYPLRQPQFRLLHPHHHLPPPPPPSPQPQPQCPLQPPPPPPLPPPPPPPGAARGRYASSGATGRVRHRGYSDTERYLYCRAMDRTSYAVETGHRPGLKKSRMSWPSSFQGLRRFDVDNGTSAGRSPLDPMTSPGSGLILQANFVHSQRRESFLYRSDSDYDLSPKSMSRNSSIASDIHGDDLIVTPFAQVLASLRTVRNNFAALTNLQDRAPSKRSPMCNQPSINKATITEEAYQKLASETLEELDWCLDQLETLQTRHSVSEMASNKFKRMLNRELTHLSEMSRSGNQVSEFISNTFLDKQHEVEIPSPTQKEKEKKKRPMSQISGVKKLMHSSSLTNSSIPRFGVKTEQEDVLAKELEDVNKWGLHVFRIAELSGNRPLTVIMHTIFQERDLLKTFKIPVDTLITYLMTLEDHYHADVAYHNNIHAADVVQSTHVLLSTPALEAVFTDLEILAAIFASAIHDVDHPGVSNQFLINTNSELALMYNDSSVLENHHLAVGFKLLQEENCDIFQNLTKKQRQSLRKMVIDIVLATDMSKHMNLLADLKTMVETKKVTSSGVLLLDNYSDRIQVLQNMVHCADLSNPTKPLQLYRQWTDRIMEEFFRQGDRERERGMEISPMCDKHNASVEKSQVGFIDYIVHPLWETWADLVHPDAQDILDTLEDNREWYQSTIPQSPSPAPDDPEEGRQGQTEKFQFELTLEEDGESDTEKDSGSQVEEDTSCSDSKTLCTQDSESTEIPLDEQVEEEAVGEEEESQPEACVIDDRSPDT
Sequence of 3',5'-cyclic-AMP phosphodiesterase 4B (Q07343 whole entry): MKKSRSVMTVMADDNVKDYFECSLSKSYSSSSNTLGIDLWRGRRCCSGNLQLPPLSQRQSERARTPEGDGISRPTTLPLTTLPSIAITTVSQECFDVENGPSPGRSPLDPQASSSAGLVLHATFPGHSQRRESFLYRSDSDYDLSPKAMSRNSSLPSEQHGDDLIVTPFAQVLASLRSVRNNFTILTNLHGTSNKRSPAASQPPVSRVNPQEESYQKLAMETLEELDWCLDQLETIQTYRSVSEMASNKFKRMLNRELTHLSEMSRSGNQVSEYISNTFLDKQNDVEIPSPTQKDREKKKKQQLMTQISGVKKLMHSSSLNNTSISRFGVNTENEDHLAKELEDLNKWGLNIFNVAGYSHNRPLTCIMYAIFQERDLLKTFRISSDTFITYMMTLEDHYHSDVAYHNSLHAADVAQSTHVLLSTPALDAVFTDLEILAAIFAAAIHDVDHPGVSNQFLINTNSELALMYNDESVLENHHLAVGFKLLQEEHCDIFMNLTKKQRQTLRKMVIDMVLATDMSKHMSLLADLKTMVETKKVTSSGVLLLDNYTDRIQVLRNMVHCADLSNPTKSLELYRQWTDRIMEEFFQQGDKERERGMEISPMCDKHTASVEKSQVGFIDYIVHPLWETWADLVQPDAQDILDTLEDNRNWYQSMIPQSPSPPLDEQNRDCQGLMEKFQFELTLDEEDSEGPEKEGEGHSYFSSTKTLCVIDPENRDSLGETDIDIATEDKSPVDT

| IC50 [1] | IC50 [2] | Ratio IC50 (Homo sapiens [3]) | Structure (SMILES) | other results |
| --- | --- | --- | --- | --- |
| 20 nM | 1100 nM | 55 | O=C(O)Cc1ccc(Nc2nc(-c3cc4ccccc4o3)nc3c2S(=O)(=O)CCC3)cc1 | – |
| 150 nM | 550 nM | 3.7 | O=C(O)Cc1ccc(Nc2nc(-c3ccccc3)nc3c2S(=O)(=O)CCC3)cc1 | Ratio IC50 (Homo sapiens [4]): 112; IC50 [5]: 2800 nM |
| 56 nM | 1200 nM | 21 | CN(C)c1ccc(-c2nc3c(c(Nc4ccc(CC(=O)O)cc4)n2)S(=O)(=O)CCC3)cn1 | – |
| 10 nM | 860 nM | 86 | CC(=O)c1ccc(-c2nc3c(c(Nc4ccc(CC(=O)O)cc4)n2)S(=O)(=O)CCC3)cc1 | – |
| 10 nM | 1000 nM | 100 | COc1ccc(-c2nc3c(c(Nc4ccc(CC(=O)O)cc4)n2)S(=O)(=O)CCC3)cc1F | – |
| 38 nM | 2100 nM | 55 | CN(C)c1ccc(-c2nc3c(c(Nc4ccc(CC(=O)O)cc4)n2)S(=O)(=O)CCC3)cc1 | – |
| 14 nM | 440 nM | 31 | O=C(O)Cc1ccc(Nc2nc(-c3ccc4c(F)cccc4c3)nc3c2S(=O)(=O)CCC3)cc1 | – |
| 19 nM | 520 nM | 27 | O=C(O)Cc1ccc(Nc2nc(-c3ccc4ccccc4c3)nc3c2S(=O)(=O)CCC3)cc1 | – |
| 250 nM | 3800 nM | 15 | COc1ccc(-c2nc3c(c(Nc4ccc(CC(=O)O)cc4)n2)S(=O)(=O)CCC3)cn1 | – |

Second part, the compound before the results:

| Structure (SMILES) | IC50 [1] | IC50 [2] | Ratio IC50 (Homo sapiens [3]) | other results |
| --- | --- | --- | --- | --- |
| O=C(O)Cc1ccc(Nc2nc(-c3ccc(F)cc3)nc3c2SCCC3)cc1 | 120 nM | 1000 nM | 8.3 | – |
| CC(=O)c1ccc(-c2nc3c(c(Nc4ccc(CC(=O)O)cc4)n2)SCCC3)cc1 | 34 nM | 1000 nM | 29 | – |
| COc1ccc(-c2nc3c(c(Nc4ccc(CC(=O)O)c(F)c4)n2)S(=O)(=O)CCC3)cc1F | 4.6 nM | 620 nM | 135 | AUC [6]: 2770 ng·h/mL; Cmax [7]: 1700 ng/mL; IC50 [8]: 18 nM; logD at 0.5 h, 200 µM [9]: 0.8; Papp at 4 h, 50 µM [10]: 14.3 ×10⁻⁶ cm/s; half-life [11]: 2 h |
| CN(C)c1ccc(-c2nc3c(c(Nc4ccc(CC(=O)O)cc4)n2)SCCC3)cn1 | 140 nM | 1600 nM | 11 | – |
| N#Cc1ccc(-c2nc3c(c(Nc4ccc(CC(=O)O)cc4)n2)SCCC3)cc1 | 30 nM | 290 nM | 9.7 | – |
| COc1ccc(-c2nc3c(c(Nc4cc(F)c(CC(=O)O)c(F)c4)n2)S(=O)(=O)CCC3)cc1F | 5.2 nM | 580 nM | 112 | – |
| O=C(O)Cc1ccc(Nc2nc(-c3ccc4ccccc4c3)nc3c2S(=O)(=O)CCC3)cc1F | 5.9 nM | 810 nM | 137 | IC50 [8]: 44 nM |
| COc1ccc(-c2nc3c(c(Nc4ccc(CC(=O)O)c(Cl)c4)n2)S(=O)(=O)CCC3)cc1F | 64 nM | 1300 nM | 20 | – |
| COc1ccc(-c2nc3c(c(Nc4ccc(CC(=O)O)cc4)n2)SCCC3)cc1Cl | 71 nM | 430 nM | 6.1 | – |
| COc1ccc(-c2nc3c(c(Nc4ccc(CC(=O)NCC(C)(C)C)cc4)n2)S(=O)(=O)CCC3)cc1F | 78 nM | 300 nM | 3.8 | – |
| COc1ccc(-c2nc3c(c(Nc4cc(F)c(CC(=O)O)cc4Cl)n2)S(=O)(=O)CCC3)cc1F | 9.9 nM | 560 nM | 57 | – |
| O=C(O)Cc1ccc(Nc2nc(-c3ccc(-c4ccccc4)cc3)nc3c2S(=O)(=O)CCC3)cc1 | 38 nM | 790 nM | 21 | – |
